Patent US20240228489A1, “POSITIVE ALLOSTERIC MODULATORS OF THE MUSCARINIC ACETYLCHOLINE RECEPTOR M1” (Vanderbilt University, priority 2021, published 2024)

Legend:
[1] = target: T1, human mAChR M1 (Homo sapiens, UniProt P11229); experiment: mAChR M1 cell-based functional assay (calcium mobilization), PAM mode: increase in the EC20 acetylcholine response
T1 sequence (P11229 1-460): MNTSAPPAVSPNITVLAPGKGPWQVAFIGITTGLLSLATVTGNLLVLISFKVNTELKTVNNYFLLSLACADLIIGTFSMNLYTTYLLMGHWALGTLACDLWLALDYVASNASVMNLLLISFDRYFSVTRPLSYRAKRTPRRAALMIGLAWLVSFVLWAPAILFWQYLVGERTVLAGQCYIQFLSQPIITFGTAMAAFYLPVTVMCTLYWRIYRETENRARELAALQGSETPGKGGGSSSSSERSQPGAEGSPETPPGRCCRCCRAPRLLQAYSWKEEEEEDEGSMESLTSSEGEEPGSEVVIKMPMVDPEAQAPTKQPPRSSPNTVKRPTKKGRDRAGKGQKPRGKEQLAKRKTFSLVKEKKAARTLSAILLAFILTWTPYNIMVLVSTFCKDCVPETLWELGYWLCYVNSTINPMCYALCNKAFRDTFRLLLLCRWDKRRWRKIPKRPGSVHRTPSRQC
How it was run: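 PAM readout is the concentration-dependent rise in the EC20 acetylcholine calcium signal, fitted to a four-parameter logistic (EC50, Emax). Compounds were preincubated from 4 s before ACh at 144 s (EC20) and 230 s (EC80). hM1-expressing CHO-K1 cells loaded with Fluo-4, FDSS ratio read.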

[2] = target: T1, human mAChR M1; experiment: mAChR M1 cell-based functional assay (calcium mobilization), agonist mode: compound alone, Emax relative to acetylcholine maximum; conditions: for EC50 / Agonist Activity Human M1 EC50: human mAChR M1; for Emax: relative to the maximum for acetylcholine
How it was run: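 Agonist activity is the concentration-dependent rise in intracellular calcium (Fluo-4, 1 Hz read) after compound addition, measured before any acetylcholine was added, in stable hM1 CHO-K1 cells. Curves were 11-point, 1:3 dilutions fitted by four-parameter logistic. Emax is given as a fraction of maximal acetylcholine response.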

SMILES | EC50 [1] | Emax [1] | EC50 [2] | Emax [2] | Agonist Activity Human M1 EC50 [2]
[2H]C1([2H])c2ncccc2C(=O)N1Cc1ccc(-c2ccc(OC(C)COC)c3nn(C)cc23)cc1F (stereo not drawn) [Compound 143, 6-(2-fluoro-4-(7-((1-methoxypropan-2-yl)oxy)-2-methyl-2H-indazol-4-yl)benzyl)-6,7-dihydro-5H-pyrrolo[3,4-b]pyridin-5-one-7,7-d2] | 1270 nM | 74% | ≥ 10000 nM | 15% | 
[2H]C1([2H])c2ncccc2C(=O)N1Cc1ccc(-c2ccc(O[C@H]3CCOC3)c3nn(C)cc23)cc1F [Compound 144, (S)-6-(2-fluoro-4-(2-methyl-7-((tetrahydrofuran-3-yl)oxy)-2H-indazol-4-yl)benzyl)-6,7-dihydro-5H-pyrrolo[3,4-b]pyridin-5-one-7,7-d2] | 751 nM | 75% | ≥ 10000 nM | 18% | 
[2H]C1([2H])c2ncccc2C(=O)N1Cc1ccc(-c2ccc(OCC3CCO3)c3nn(C)cc23)cc1F (stereo not drawn) [Compound 145, 6-(2-fluoro-4-(2-methyl-7-(oxetan-2-ylmethoxy)-2H-indazol-4-yl)benzyl)-6,7-dihydro-5H-pyrrolo[3,4-b]pyridin-5-one-7,7-d2] | 1070 nM | 73% | ≥ 10000 nM | 16% | 
[2H]C([2H])([2H])Oc1cnc2c(c1)C(=O)N(Cc1c(F)cc(-c3ccc(OC)c4nn(C)cc34)cc1F)C2([2H])[2H] [Compound 146, 6-(2,6-difluoro-4-(7-methoxy-2-methyl-2H-indazol-4-yl)benzyl)-3-(methoxy-d3)-6,7-dihydro-5H-pyrrolo[3,4-b]pyridin-5-one-7,7-d2] | 179 nM | 79% | 4640 nM | 28% | 
[2H]C1([2H])c2ncccc2C(=O)N1Cc1ccc(-c2ccc(OCC3CCCO3)c3nn(C)cc23)cc1F (stereo not drawn) [Compound 147, 6-(2-fluoro-4-(2-methyl-7-((tetrahydrofuran-2-yl)methoxy)-2H-indazol-4-yl)benzyl)-6,7-dihydro-5H-pyrrolo[3,4-b]pyridin-5-one-7,7-d2] | 1100 nM | 79% | ≥ 10000 nM | 12% | 
[2H]C1([2H])c2ncccc2C(=O)N1Cc1c(F)cc(-c2ccc(O[C@H](C)COC)c3nn(C)cc23)cc1F [Compound 148, (R)-6-(2,6-difluoro-4-(7-((1-methoxypropan-2-yl)oxy)-2-methyl-2H-indazol-4-yl)benzyl)-6,7-dihydro-5H-pyrrolo[3,4-b]pyridin-5-one-7,7-d2] | 540 nM | 81% | ≥ 10000 nM | 31% | 
[2H]C1([2H])c2ncccc2C(=O)N1Cc1c(F)cc(-c2ccc(OCCOC(C)C)c3nn(C)cc23)cc1F [Compound 149, 6-(2,6-difluoro-4-(7-(2-isopropoxyethoxy)-2-methyl-2H-indazol-4-yl)benzyl)-6,7-dihydro-5H-pyrrolo[3,4-b]pyridin-5-one-7,7-d2] | 717 nM | 77% | ≥ 10000 nM | 26% | 
[2H]C1([2H])c2ncccc2C(=O)N1Cc1c(F)cc(-c2ccc(OCCOC3CC3)c3nn(C)cc23)cc1F [Compound 150, 6-(4-(7-(2-cyclopropoxyethoxy)-2-methyl-2H-indazol-4-yl)-2,6-difluorobenzyl)-6,7-dihydro-5H-pyrrolo[3,4-b]pyridin-5-one-7,7-d2] | 777 nM | 80% | ≥ 10000 nM | 22% | 
[2H]C1([2H])c2ncccc2C(=O)N1Cc1ccc(-c2ccc(O[C@@H]3CCOC3)c3nn(C)cc23)cc1F [Compound 151, (R)-6-(2-fluoro-4-(2-methyl-7-((tetrahydrofuran-3-yl)oxy)-2H-indazol-4-yl)benzyl)-6,7-dihydro-5H-pyrrolo[3,4-b]pyridin-5-one-7,7-d2] | 694 nM | 76% | ≥ 10000 nM | 22% | 
[2H]C1([2H])c2ncccc2C(=O)N1Cc1ccc(-c2ccc(O[C@@H](C)COC)c3nn(C)cc23)cc1F [Compound 152, (S)-6-(2-fluoro-4-(7-((1-methoxypropan-2-yl)oxy)-2-methyl-2H-indazol-4-yl)benzyl)-6,7-dihydro-5H-pyrrolo[3,4-b]pyridin-5-one-7,7-d2] | 643 nM | 80% | ≥ 10000 nM | 27% | 
[2H]C1([2H])c2ncccc2C(=O)N1Cc1ccc(-c2ccc(OCCOC(C)C)c3nn(C)cc23)cc1F [Compound 153, 6-(2-fluoro-4-(7-(2-isopropoxyethoxy)-2-methyl-2H-indazol-4-yl)benzyl)-6,7-dihydro-5H-pyrrolo[3,4-b]pyridin-5-one-7,7-d2] | 1340 nM | 79% | ≥ 10000 nM | 15% | 
[2H]C1([2H])c2ncccc2C(=O)N1Cc1ccc(-c2ccc(OCCOC3CC3)c3nn(C)cc23)cc1F [Compound 154, 6-(4-(7-(2-cyclopropoxyethoxy)-2-methyl-2H-indazol-4-yl)-2-fluorobenzyl)-6,7-dihydro-5H-pyrrolo[3,4-b]pyridin-5-one-7,7-d2] | 1090 nM | 77% | ≥ 10000 nM | 17% | 
[2H]C1([2H])c2ncccc2C(=O)N1Cc1c(C)cc(-c2ccc(C)c3nn(C([2H])([2H])[2H])cc23)cc1F [Compound 157, 6-(2-fluoro-6-methyl-4-(7-methyl-2-(methyl-d3)-2H-indazol-4-yl)benzyl)-6,7-dihydro-5H-pyrrolo[3,4-b]pyridin-5-one-7,7-d2] | 456 nM | 81% | ≥ 10000 nM | 16% | 
[2H]C1([2H])c2ncccc2C(=O)N1Cc1c(C)cc(-c2ccc(F)c3nn(C([2H])([2H])[2H])cc23)cc1F [Compound 158, 6-(2-fluoro-4-(7-fluoro-2-(methyl-d3)-2H-indazol-4-yl)-6-methylbenzyl)-6,7-dihydro-5H-pyrrolo[3,4-b]pyridin-5-one-7,7-d2] | 382 nM | 80% |  | 6% | Inactive

Second part, the molecule after the results:

EC50 [1] | Emax [1] | EC50 [2] | Emax [2] | Agonist Activity Human M1 EC50 [2] | SMILES
164 nM | 83% | 6240 nM | 31% |  | [2H]C1([2H])c2ncccc2C(=O)N1Cc1c(C)cc(-c2ccc(OC)c3nn(C([2H])([2H])[2H])cc23)cc1F [Compound 159, 6-(2-fluoro-4-(7-methoxy-2-(methyl-d3)-2H-indazol-4-yl)-6-methylbenzyl)-6,7-dihydro-5H-pyrrolo[3,4-b]pyridin-5-one-7,7-d2]
396 nM | 83% | ≥ 10000 nM | 13% |  | [2H]C1([2H])c2ncccc2C(=O)N1Cc1c(C)cc(-c2ccc3nn(C([2H])([2H])[2H])cc3c2)cc1F [Compound 160, 6-(2-fluoro-6-methyl-4-(2-(methyl-d3)-2H-indazol-5-yl)benzyl)-6,7-dihydro-5H-pyrrolo[3,4-b]pyridin-5-one-7,7-d2]
353 nM | 81% |  | 6% | Inactive | [2H]C1([2H])c2ncccc2C(=O)N1Cc1c(F)cc(-c2cccc3nn(C([2H])([2H])[2H])cc23)cc1Cl [Compound 161, 6-(2-chloro-6-fluoro-4-(2-(methyl-d3)-2H-indazol-4-yl)benzyl)-6,7-dihydro-5H-pyrrolo[3,4-b]pyridin-5-one-7,7-d2]
435 nM | 81% |  | 2% | Inactive | [2H]C1([2H])c2ncccc2C(=O)N1Cc1c(F)cc(-c2ccc(C)c3nn(C)cc23)cc1Cl [Compound 162, 6-(2-chloro-4-(2,7-dimethyl-2H-indazol-4-yl)-6-fluorobenzyl)-6,7-dihydro-5H-pyrrolo[3,4-b]pyridin-5-one-7,7-d2]
239 nM | 81% |  | 3% | Inactive | [2H]C1([2H])c2ncccc2C(=O)N1Cc1c(F)cc(-c2ccc(OC)c3nn(C)cc23)cc1Cl [Compound 163, 6-(2-chloro-6-fluoro-4-(7-methoxy-2-methyl-2H-indazol-4-yl)benzyl)-6,7-dihydro-5H-pyrrolo[3,4-b]pyridin-5-one-7,7-d2]
476 nM | 82% |  | 3% | Inactive | [2H]C1([2H])c2ncccc2C(=O)N1Cc1c(F)cc(-c2ccc(F)c3nn(C)cc23)cc1Cl [Compound 164, 6-(2-chloro-6-fluoro-4-(7-fluoro-2-methyl-2H-indazol-4-yl)benzyl)-6,7-dihydro-5H-pyrrolo[3,4-b]pyridin-5-one-7,7-d2]
643 nM | 93% | ≥ 10000 nM | 16% |  | [2H]C1([2H])c2ncccc2C(=O)N1Cc1c(F)cc(-c2ccnc3nn(C)cc23)cc1Cl [Compound 165, 6-(2-chloro-6-fluoro-4-(2-methyl-2H-pyrazolo[3,4-b]pyridin-4-yl)benzyl)-6,7-dihydro-5H-pyrrolo[3,4-b]pyridin-5-one-7,7-d2]
